In BigSolDB 2.1:

O=C1c2ccccc2-c2ccc(Br)cc21
solubility (mole fraction)
Conditions | in 1,4-dioxane | in acetonitrile | in ethanol | in ethyl acetate | in isopropanol | in methanol | in methyl acetate | in n-butanol | in n-butyl acetate | in n-propanol
278.15 K | – | 0.000793 | 0.000435 | 0.00515 | 0.000365 | 0.000214 | 0.00408 | 0.000924 | 0.00637 | 0.0006
283.15 K | 0.0136 | 0.001 | 0.000546 | 0.00603 | 0.000477 | 0.000265 | 0.00517 | 0.00119 | 0.00757 | 0.000747
288.15 K | 0.0167 | 0.00122 | 0.000674 | 0.00732 | 0.000604 | 0.000329 | 0.00608 | 0.00148 | 0.00911 | 0.000915
293.15 K | 0.0199 | 0.00152 | 0.000831 | 0.00865 | 0.000765 | 0.00042 | 0.00738 | 0.0018 | 0.0113 | 0.00116
298.15 K | 0.0241 | 0.00188 | 0.00101 | 0.0102 | 0.000969 | 0.000529 | 0.00882 | 0.00221 | 0.0136 | 0.00143
303.15 K | 0.0284 | 0.00227 | 0.00123 | 0.012 | 0.0012 | 0.00066 | 0.0105 | 0.00268 | 0.016 | 0.00173
308.15 K | 0.0334 | 0.00273 | 0.00146 | 0.0136 | 0.00148 | 0.000828 | 0.0123 | 0.00328 | 0.019 | 0.00208
313.15 K | 0.0391 | 0.00327 | 0.00174 | 0.016 | 0.00183 | 0.00102 | 0.0144 | 0.00393 | 0.0221 | 0.0025
318.15 K | 0.0455 | 0.00389 | 0.00205 | 0.0183 | 0.00224 | 0.00127 | 0.0168 | 0.00466 | 0.0259 | 0.00297
323.15 K | 0.0527 | 0.0046 | 0.00239 | 0.0212 | 0.0027 | 0.00157 | 0.0193 | 0.00553 | 0.03 | 0.0035
